“Also recorded” adds a separate entry of the source.
Key:
ALDH5 = test: Catalytic activity of ALDH5 isozyme (isozyme selectivity, FIG. 3A); format: biochemical
Protocol: (§1) As an example of an assay for dehydrogenase activity, ALDH aldehyde dehydrogenase activity is assayed at 25° C. in 50 mM sodium pyrophosphate HCl buffer, pH 9.0, 100 mM sodium phosphate buffer, pH 7.4, or 50 mM sodium phosphate buffer, pH 7.4, where the buffer includes NAD^+ (e.g., 0.8 mM NAD^+, or higher, e.g., 1 mM, 2 mM, or 5 mM NAD^+) and an aldehyde substrate such as 14 μM propionaldehyde. Reduction of NAD^+ is monitored at 340 nm using a spectrophotometer, or by fluorescence increase using a fluoromicrophotometer Enzymatic activity can be assayed using a standard spectrophotometric method, e.g., by measuring a reductive reaction of the oxidized form of nicotinamide adenine dinucleotide (NAD^+) to its reduced form, NADH, at 340 nm, as described in US 2005/0171043; and WO 2005/057213, and as depicted schematically in FIG. 4. In an exemplary assay, the reaction is carried out at 25° C. in […] pyrophosphate (NaPPi) buffer, pH 9.0, 2.4 mM NAD^+ and 10 mM acetaldehyde as the substrate. Enzymatic activity is measured by a reductive reaction of NAD^+ to NADH at 340 nm, as described in US 2005/0171043; and WO 2005/057213. Alternatively, the production of NADH can be coupled with another enzymatic reaction that consumes NADH and that provides for a detectable signal. […]

ALDH2 = target: T1, ALDH2 (Homo sapiens, UniProt P05091); test: Catalytic activity of ALDH2 isozyme (isozyme selectivity, FIG. 3A); format: biochemical
T1 sequence (P05091 18-517): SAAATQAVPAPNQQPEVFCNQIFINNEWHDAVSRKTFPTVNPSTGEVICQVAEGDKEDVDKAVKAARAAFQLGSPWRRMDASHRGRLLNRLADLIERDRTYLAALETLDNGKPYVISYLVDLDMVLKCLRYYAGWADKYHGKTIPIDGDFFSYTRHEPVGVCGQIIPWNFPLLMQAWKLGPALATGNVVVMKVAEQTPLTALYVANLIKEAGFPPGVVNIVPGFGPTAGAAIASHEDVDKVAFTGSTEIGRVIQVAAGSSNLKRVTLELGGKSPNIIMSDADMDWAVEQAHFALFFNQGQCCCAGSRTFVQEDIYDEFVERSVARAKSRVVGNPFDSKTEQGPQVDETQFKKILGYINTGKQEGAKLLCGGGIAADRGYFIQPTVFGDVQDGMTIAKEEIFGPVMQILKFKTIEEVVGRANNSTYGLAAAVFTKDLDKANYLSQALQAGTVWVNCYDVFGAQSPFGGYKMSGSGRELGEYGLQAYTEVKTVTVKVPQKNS
Protocol: as §1

SMG salispheres = test: Salisphere formation and BrdU incorporation of unselected SMG cells from treated mice (FIG. 3D); format: in vivo, mouse
Protocol: After 3 days of culture, cells were stained with Brdu staining kit according to the manufacturer's instructions (Invitrogen, Carlsbdad, Calif.). The total number of salispheres and BrdU positive salispheres per 96 well were counted under light microscopy. For each group 20 wells were counted and experiments were repeated 3 times.
(§2) An ALDH3 activator (Alda89, 100 ug/ml, n=5) and Vehicle control ([…]; 50% DMSO and 50% PEG400, n=5) was injected into ALZET osmotic pumps (DURECT Corporation, Cupertino, Calif.). The osmotic pumps were implanted subcutaneously into C57BL/6 mice. The mice were euthanized after 7 days and salivary gland tissues were collected for analysis of salsiphere formation and BrdU incorporation as described above. In addition, FACs analysis for anti-mouse c-Kit and anti-mouse CD90 (BD Biosciences, San Jose, Calif.) cell population was also performed in pooled SMG samples.

ALDH1 = target: T2, ALDH1 (Homo sapiens, UniProt P00352); test: Catalytic activity of ALDH1 isozyme (isozyme selectivity, FIG. 3A); format: biochemical
T2 sequence (P00352 1-501): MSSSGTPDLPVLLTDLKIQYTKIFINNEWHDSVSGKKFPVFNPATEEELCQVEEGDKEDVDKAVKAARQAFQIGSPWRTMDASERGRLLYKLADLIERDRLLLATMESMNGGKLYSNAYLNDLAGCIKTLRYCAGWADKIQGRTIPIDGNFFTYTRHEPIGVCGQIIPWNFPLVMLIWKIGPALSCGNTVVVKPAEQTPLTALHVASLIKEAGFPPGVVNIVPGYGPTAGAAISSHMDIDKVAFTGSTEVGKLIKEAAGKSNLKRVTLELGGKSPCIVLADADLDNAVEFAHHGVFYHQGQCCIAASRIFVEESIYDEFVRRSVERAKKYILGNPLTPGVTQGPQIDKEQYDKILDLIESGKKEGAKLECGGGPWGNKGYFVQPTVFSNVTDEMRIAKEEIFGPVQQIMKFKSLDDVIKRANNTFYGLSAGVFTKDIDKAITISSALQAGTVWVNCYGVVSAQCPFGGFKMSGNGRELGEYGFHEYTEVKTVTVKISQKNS
Protocol: as §1

c-kit+/CD90+ SMG cells = test: FACS count of c-Kit+/CD90+ submandibular gland cells after 7 days of infusion in mice (FIG. 3C); format: in vivo, mouse
Protocol: All animal procedures were approved by the Institutional Animal Care and Use Committee at Stanford University. Female C57BL/6 mice (n=10, 4-5 weeks old, Jackson Laboratory, Sacramento, Calif.) were used for ALDH3 activator study.
as §2

ALDH3 = target: T3, ALDH3 (Mus musculus, UniProt P47739); test: ALDH3 enzyme activity in esophagus cell homogenate after osmotic pump infusion into mice (FIG. 3B); format: in vivo; details: 34 mg/kg/day, n=5, p<0.05
T3 construct: enhanced ALDH3 enzyme activity by 29% in esophagus cell homogenate; from tissue; host or cells: esophagus cell homogenate of C57BL/6 mice
T3 sequence (P47739 1-453): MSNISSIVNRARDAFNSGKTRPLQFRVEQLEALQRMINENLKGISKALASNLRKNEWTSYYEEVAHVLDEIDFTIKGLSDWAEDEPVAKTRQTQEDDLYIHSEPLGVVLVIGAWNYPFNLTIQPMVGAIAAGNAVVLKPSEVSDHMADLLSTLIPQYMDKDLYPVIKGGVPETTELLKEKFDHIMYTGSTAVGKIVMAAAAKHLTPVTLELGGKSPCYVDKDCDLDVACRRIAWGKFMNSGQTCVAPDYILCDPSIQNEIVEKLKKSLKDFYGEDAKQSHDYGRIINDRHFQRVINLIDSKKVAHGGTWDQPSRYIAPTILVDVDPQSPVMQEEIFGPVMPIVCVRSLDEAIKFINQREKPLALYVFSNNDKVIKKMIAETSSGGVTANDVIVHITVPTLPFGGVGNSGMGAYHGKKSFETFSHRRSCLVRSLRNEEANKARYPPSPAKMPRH

[1] = target: T4, human ALDH3 recombinant enzyme (Homo sapiens, UniProt P30838); test: Catalytic activity of recombinant ALDH3 enzyme (isozyme selectivity, FIG. 3A); format: biochemical; details: n=3, p<0.01
T4 sequence (P30838 1-453): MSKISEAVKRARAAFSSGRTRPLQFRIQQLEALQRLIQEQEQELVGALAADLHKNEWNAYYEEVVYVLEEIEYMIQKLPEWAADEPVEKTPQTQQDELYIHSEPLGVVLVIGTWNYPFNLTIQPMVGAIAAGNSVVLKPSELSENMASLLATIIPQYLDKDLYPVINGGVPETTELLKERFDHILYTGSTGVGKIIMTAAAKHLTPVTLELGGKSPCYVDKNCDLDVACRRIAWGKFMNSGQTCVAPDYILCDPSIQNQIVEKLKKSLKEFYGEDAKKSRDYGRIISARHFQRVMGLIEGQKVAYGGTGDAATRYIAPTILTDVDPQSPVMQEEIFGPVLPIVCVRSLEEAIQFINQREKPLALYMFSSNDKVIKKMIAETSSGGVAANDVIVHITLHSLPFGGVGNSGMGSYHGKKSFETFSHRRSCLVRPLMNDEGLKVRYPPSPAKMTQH
Protocol: as §1

C=CCc1ccc2c(c1)OCO2 [Alda-89, 5-(2-propenyl)-1,3-benzodioxole]
effect on ALDH5 isozyme catalytic activity (ALDH5): no effect | effect on ALDH2 isozyme catalytic activity (ALDH2): no effect | change in BrdU+ salisphere number after treatment of adult mice (SMG salispheres; adult mice, summary statement): more than doubling | number of BrdU+ spheres (SMG salispheres; unselected SMG cells from mice treated 7 days, 3 days of culture, vehicle 66±1.42, p<0.05): 91±0.83 spheres/5000 cells | total number of salispheres (SMG salispheres; unselected SMG cells from mice treated 7 days, 3 days of culture, vehicle 86±0.58, p<0.05): 121±0.83 spheres/5000 cells | effect on ALDH1 isozyme catalytic activity (ALDH1): no effect | change in number of c-kit+/CD90+ SMG cells compared to vehicle control (c-kit+/CD90+ SMG cells; 7 days of treatment): more than doubling; also recorded: more than doubled | number of c-kit+/CD90+ cells in SMG (c-kit+/CD90+ SMG cells; 7 days of treatment by subcutaneous osmotic pump, vehicle 7.37±0.45%, p<0.05): 17.8±0.95% | enhancement of ALDH3 enzyme activity in esophagus cell homogenate vs vehicle control (ALDH3): 29% | catalytic activity of human ALDH3 recombinant enzyme [1]: 304.4±7.1 % of control

— patent US10457659B2, “Compositions and methods for increasing proliferation of adult salivary stem cells” (The Board of Trustees of the Leland Stanford Junior …, priority 2011, dated 2019)
